Laboratory results from US9126999B2, “Tetrahydropyrazolopyrimidine compounds” (EISAI R&D MANAGEMENT CO., LTD., priority 2012, dated 2015).
pIC50: −log10 of the molar value. Values belong to the compound of their own block, whether it stands above or below them.

Legend:
[1] = test system: T1, Human TLR7/8; test: Human PBMC cell-based assay, RNA-Ig (SL4-Ig) stimulus, cytokine ELISA; details: Human PBMC IL-6 Inhibition (SL4-Ig Ligand); read-out: Human PBMC IC50
T1 construct: IC50; other: Hu PBMC; ligand RNA-Ig; analyte IL-6; analyte TNFα; ligand R848; IC50 against the RNA-Ig TLR7/8 stimulus; cytokine responses to RNA-Ig complexes in vitro; potency against the RNA-Ig TLR7/8 stimulus versus HCQ
Protocol: Briefly, 25 ml blood was diluted with 15 ml PBS (without Ca^2+, Mg^2+) in a 50 ml conical tube, and 12 ml Histopaque was underlaid using a spinal needle. Tubes were centrifuged for 45 minutes at 1200 rpm (350×g), and PBMC were collected from the buffy coat. Cells were then washed twice in PBS, and red blood cells were lysed by suspension in 5 ml ammonium chloride solution (1× Red Blood Cell Lysis Buffer, eBioscience) for 5 minutes at room temperature.
Antagonist compounds solubilized and serial diluted in 100% DMSO were added in triplicate to cells to yield a final concentration of 0.1% DMSO (v/v). Hydroxychloroquine (Acros Organics) solubilized and serial diluted in PBS was added in triplicate to cells. […] The resulting “RNA-Ig” stimulus was incubated at room temperature for 15-30 minutes before adding to cells. PBMC were incubated with the various TLR agonists for 20 hours at 37° C., 5% CO2. Cell culture supernatants were collected, and levels of various human cytokines were assessed as indicated by standard ELISA procedure according to the manufacturer's recommended protocol (BD Biosciences, Inc., San Diego, Calif.).

[2] = target: T2, Mouse TLR7 (Mus musculus, UniProt P58681); test: Short-term in vivo (STIV) assay: plasma IL-6 after s.c. R848
T2 construct: endogenous in cells; host or cells: female BALB/c mice, in vivo
T2 sequence (P58681 27-1050): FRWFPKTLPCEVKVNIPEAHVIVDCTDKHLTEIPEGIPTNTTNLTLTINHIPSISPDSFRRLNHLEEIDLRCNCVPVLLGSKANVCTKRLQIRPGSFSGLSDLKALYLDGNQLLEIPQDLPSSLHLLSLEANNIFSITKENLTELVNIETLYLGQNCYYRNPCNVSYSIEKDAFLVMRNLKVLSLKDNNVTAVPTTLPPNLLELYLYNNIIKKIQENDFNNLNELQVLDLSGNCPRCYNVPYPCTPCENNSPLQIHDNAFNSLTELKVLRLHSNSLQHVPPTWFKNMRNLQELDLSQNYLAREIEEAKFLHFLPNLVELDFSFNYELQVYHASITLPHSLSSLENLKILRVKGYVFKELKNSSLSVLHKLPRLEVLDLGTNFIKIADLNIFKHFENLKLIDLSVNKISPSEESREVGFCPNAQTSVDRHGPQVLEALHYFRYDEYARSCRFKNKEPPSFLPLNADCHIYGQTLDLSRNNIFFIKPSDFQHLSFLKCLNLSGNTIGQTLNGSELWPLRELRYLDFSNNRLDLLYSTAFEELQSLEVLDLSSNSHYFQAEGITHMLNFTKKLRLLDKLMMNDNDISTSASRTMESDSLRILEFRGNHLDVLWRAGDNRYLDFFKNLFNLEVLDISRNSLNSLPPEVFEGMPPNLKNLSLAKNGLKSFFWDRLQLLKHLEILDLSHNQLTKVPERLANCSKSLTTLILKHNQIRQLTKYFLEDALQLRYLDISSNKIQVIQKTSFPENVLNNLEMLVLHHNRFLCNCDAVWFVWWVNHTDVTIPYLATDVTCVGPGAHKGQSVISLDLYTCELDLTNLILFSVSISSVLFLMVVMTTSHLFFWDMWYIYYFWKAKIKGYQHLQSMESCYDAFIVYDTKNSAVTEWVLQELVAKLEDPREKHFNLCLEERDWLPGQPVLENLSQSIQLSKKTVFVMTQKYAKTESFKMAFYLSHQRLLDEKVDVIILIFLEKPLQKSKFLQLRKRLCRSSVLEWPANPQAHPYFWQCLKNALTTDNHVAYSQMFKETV
Protocol: Figure Legend: Female BALB/c mice were dosed by oral gavage with Vehicle alone (0.5% aqueous methyl-cellulose) or compound ER-892887 formulated in Vehicle at 100 mg/kg or 300 mg/kg. At 13 or 24 hours following oral dosing, mice were injected subcutaneously with 15 ug R848 to stimulate TLR7. Blood plasma was collected by cardiac puncture, and the IL-6 level at 1.5 hours after TLR7 stimulation was then assessed by standard ELISA procedure. Percent suppression indicated is relative to IL-6 induction following Vehicle control dosing. Statistical significance was determined by Mann-Whitney test.
To assess compound potency in vivo against mouse TLR7, a short-term in vivo (STIV) assay was utilized. Briefly, mice were orally dosed with compounds and at various time points afterwards were injected subcutaneously with agonist R848 to stimulate TLR7. The plasma IL-6 level following R848 stimulation was then measured by ELISA to assess compound potency and duration-of-action. […] Therefore, the activity of compounds in the STIV assay can be confidently attributed to their modulation of the TLR7 pathway. A single oral dose of ER-892887 at 300 mg/kg suppresses the R848/TLR7/IL-6 pathway in vivo by 80-90% for at least 24 hours (see FIG. 1).
Six to eight week old female BALB/c mice (Jackson Labs, Bar Harbor, Me.) were dosed by oral gavage in 200 ul volume with antagonist compounds formulated in 0.5% aqueous methyl-cellulose (Sigma, St. Louis, Mo.). At various time points afterwards, mice were injected subcutaneously (s.c.) in 100 ul volume with 15 ug R848 (Resiquimod; GLSynthesis, Worcester, Mass.) to stimulate TLR7. Blood plasma was collected by cardiac puncture, and levels of IL-6 at 1.5 hours after TLR7 stimulation were then assessed by standard ELISA procedure according to the manufacturer's recommended protocol (R&D Systems).

[3] = target: T2, Mouse TLR7; test: Mouse spleen cell-based assay, R848 stimulus, IL-6 ELISA; details: Mouse Splenocyte IL-6 Inhibition (R848 Ligand); read-out: Mouse Splenocyte IC50
Protocol: Spleens were harvested from female BALB/c mice (Jackson Labs, Bar Harbor, Me.) euthanized by CO2. A single cell suspension was obtained by passing spleens through a 40 μm nylon cell strainer. Cells were washed twice with 50 ml PBS (Mediatech, Inc., Manassas, Va.) and red blood cells were lysed in 5 ml RBC Lysis buffer (eBioscience, Inc., San Diego, Calif.) for 5 minutes at room temperature. Cells were washed twice more in PBS and finally resuspended in supplemented RPMI-1640 at 2.5×10^6 cells/ml. Cells were plated at 100 μl/well (2.5×10^5 cells/well) in 96-well tissue culture treated plates (Falcon). Serial dilutions of compounds solubilized in 100% DMSO were added in triplicate to cells to yield a final concentration of 0.1% DMSO. Cells were incubated with compound for 30 minutes at 37° C., 5% CO2 before adding 100 μl/well of 740 nM R848 (Resiquimod; GLSynthesis, Worcester, Mass.) in complete media for a final concentration of 370 nM R848. Cells were incubated for 20 hours at 37° C., 5% CO2. Culture supernatants were collected, and levels of IL-6 were assessed by standard ELISA procedure according to the manufacturer's recommended protocol (BD Biosciences, Inc., San Diego, Calif.).

[4] = time point 6 hr, dose 33 mg/kg oral
[5] = time point 6 hr, dose 100 mg/kg oral
[6] = time point 6 hr, dose 300 mg/kg oral
[7] = time point 13 hr, dose 33 mg/kg oral
[8] = time point 13 hr, dose 100 mg/kg oral
[9] = time point 13 hr, dose 300 mg/kg oral
[10] = time point 24 hr, dose 100 mg/kg oral
[11] = time point 24 hr, dose 300 mg/kg oral

pIC50 [1]: 6.76
% Suppression vs. Vehicle ([2]; time point 3 hr, dose 33 mg/kg oral): 90%
% Suppression vs. Vehicle ([2]; time point 3 hr, dose 100 mg/kg oral): 98%
% Suppression vs. Vehicle ([2]; time point 3 hr, dose 300 mg/kg oral): 99%
% Suppression vs. Vehicle [2, 4]: 42%
% Suppression vs. Vehicle [2, 5]: 81%
% Suppression vs. Vehicle [2, 6]: 96%
% Suppression vs. Vehicle [2, 7]: 0%
% Suppression vs. Vehicle [2, 8]: 7%
% Suppression vs. Vehicle [2, 9]: 50%
Compound: COc1ccc([C@@H]2C[C@H](C(F)(F)F)n3nc(C4CCNCC4)cc3N2)cc1OC [ER-885681]

pIC50 [1]: 7.37
pIC50 [3]: 6.38
Compound: COc1ccc(C2CC(C(F)F)n3nc(-c4ccc(C(=O)N5CCNCC5)cc4)cc3N2)cc1OC (racemic) [ER-894466]

pIC50 [1]: 7.74
Compound: COc1ccc(C2CC(C(F)(F)F)n3nc(-c4ccc(C(=O)NC5CCCNC5)nc4)cc3N2)cc1OC (centres unmarked) [ER-896135]

pIC50 [1]: 7.57
Compound: COc1ccc(C2CC(C(F)(F)F)n3nc(-c4ccc(C(=O)NC5CCNC5)nc4)cc3N2)cc1OC (centres unmarked) [ER-895810]

pIC50 [1]: 7.64
% Suppression vs. Vehicle [2, 4]: 92%
% Suppression vs. Vehicle [2, 7]: 0%
% Suppression vs. Vehicle [2, 8]: 18%
% Suppression vs. Vehicle [2, 9]: 90%
% Suppression vs. Vehicle [2, 10]: 0%
% Suppression vs. Vehicle [2, 11]: 60%
pIC50 [3]: 6.57
Compound: COc1ccc([C@H]2C[C@@H](C(F)F)n3nc(-c4ccc(C(=O)N5CCNCC5)cc4)cc3N2)cc1OC [ER-895303]

pIC50 [1]: 7.60
% Suppression vs. Vehicle [2, 4]: 93%
% Suppression vs. Vehicle [2, 5]: 99%
% Suppression vs. Vehicle [2, 6]: 99%
% Suppression vs. Vehicle [2, 7]: 14%
% Suppression vs. Vehicle [2, 8]: 16%
% Suppression vs. Vehicle [2, 9]: 91%
% Suppression vs. Vehicle ([2]; time point 24 hr, dose 33 mg/kg oral): 30%
% Suppression vs. Vehicle [2, 10]: 0%
% Suppression vs. Vehicle [2, 11]: 37%
pIC50 [3]: 6.92
Compound: COc1ccc([C@@H]2C[C@H](C(F)F)n3nc(-c4ccc(C(=O)N5CCNCC5)cc4)cc3N2)cc1OC [ER-895302]

pIC50 [1]: 6.91
Compound: COc1ccc(C2CC(C(F)(F)F)n3nc(-c4cccc(C(=O)N5CCNCC5)c4)cc3N2)cc1OC (centres unmarked) [ER-896388]

pIC50 [1]: 7.92
Compound: COc1ccc(C2CC(C(F)(F)F)n3nc(-c4ccc(C(=O)NC5CCNCC5)nc4)cc3N2)cc1OC (centres unmarked) [ER-896134]

pIC50 [1]: 5.35
pIC50 [3]: 5.41
Compound: Cc1nn(C)cc1[C@@H]1C[C@H](C(F)(F)F)n2nc(-c3ccc4nn(C)cc4c3)cc2N1 [ER-893990]

pIC50 [1]: 7.31
Compound: COc1ccc(C2CC(C(F)(F)F)n3nc(C(=O)N4CCNCC4)cc3N2)cc1OC (centres unmarked) [ER-896452]

pIC50 [1]: 7.68
Compound: COc1ccc(C2CC(C(F)(F)F)n3nc(-c4ccc(C(=O)NC5CCNC5)nc4)cc3N2)cc1OC (centres unmarked) [ER-895809]

pIC50 [1]: 7.19
Compound: COc1ccc(C2CC(C(F)(F)F)n3nc(-c4ccc(C(=O)N5CCNCC5)nc4)cc3N2)cc1OC (centres unmarked) [ER-896133]

pIC50 [1]: 6.45
Compound: COc1ccc([C@H]2C[C@@H](C(F)(F)F)n3nc(C4CCNCC4)cc3N2)cc1OC [ER-885682]

pIC50 [1]: 7.00
Compound: COc1ccc(C2CC(C(F)(F)F)n3nc(C4CCNCC4)cc3N2)cc1OC (centres unmarked) [ER-887084]

Compound: 5-(3,4-dimethoxyphenyl)-2-(6-methyl-1,2,3,6-tetrahydropyridin-4-yl)-7-(trifluoromethyl)-4,5,6,7-tetrahydropyrazolo[1,5-a]pyrimidine hydrochloride and 5-(3,4-dimethoxyphenyl)-2-(2-methyl-1,2,3,6-tetrahydropyridin-4-yl)-7-(trifluoromethyl)-4,5,6,7-tetrahydropyrazolo[1,5-a]pyrimidine hydrochloride [ER-896993]
pIC50 [1]: 7.42

pIC50 [1]: 6.95
Compound: COc1ccc(C2CC(C(F)(F)F)n3nc(-c4cccc(C(=O)NC5CCNC5)c4)cc3N2)cc1OC (centres unmarked) [ER-895811]
